Assay: xn = mol fraction of the nth substance listed

C1CCOCC1 + CCCCO
viscosity [mPa·s], 101.3 kPa
Settings	x1 = 0.0478	x1 = 0.0969	x1 = 0.1984	x1 = 0.288	x1 = 0.3973	x1 = 0.5005	x1 = 0.6788	x1 = 0.7023	x1 = 0.8041	x1 = 0.9024
298.15 K	2.294	2.056	1.662	1.426	1.222	1.087	0.931	0.9162	0.8645	0.8316
313.15 K	1.633	1.483	1.255	1.086	0.9459	0.8494	0.7345	0.7252	0.6832	0.6584

O=C(O)CC(O)(CC(=O)O)C(=O)O + O
viscosity [mPa·s]
Settings	293.15 K	298.15 K	303.15 K	308.15 K	313.15 K
100 kPa, x1 = 0.002	–	0.9112	0.8258	0.7481	0.6742
101.3 kPa, x1 = 0.00018	1.016	0.908	0.815	0.737	0.701
101.3 kPa, x1 = 0.0003607	1.025	0.917	0.822	0.741	0.675
101.3 kPa, x1 = 0.0005403	1.031	0.922	0.825	0.747	0.679

CC(Cl)(Cl)Cl + CCCCCCCO
303.15 K, 101 kPa
Settings	viscosity [mPa·s]
x2 = 0.1177	0.974
x2 = 0.2075	1.143
x2 = 0.4385	1.666
x2 = 0.5262	1.941
x2 = 0.5911	2.186
x2 = 0.6407	2.407
x2 = 0.7497	2.99
x2 = 0.8365	3.56
x2 = 0.9206	4.198

O=C([O-])C(F)(F)F.[Cs+] + O
viscosity [mPa·s], 101 kPa
Settings	298.15 K	303.15 K	308.15 K	313.15 K
x1 = 0.00102	0.897	0.805	0.727	0.663
x1 = 0.00146	0.899	0.808	0.729	0.666
x1 = 0.002202	0.904	0.812	0.734	0.67
x1 = 0.00303	0.909	0.817	0.739	0.675
x1 = 0.003649	0.913	0.821	0.743	0.679
x1 = 0.004385	0.918	0.826	0.747	0.684
x1 = 0.005137	0.923	0.83	0.752	0.689
x1 = 0.005844	0.928	0.836	0.757	0.693
x1 = 0.006694	0.933	0.841	0.762	0.698
x1 = 0.007272	0.937	0.845	0.767	0.702
x1 = 0.008058	0.943	0.85	0.772	0.707
x1 = 0.008713	0.947	0.855	0.777	0.711
x1 = 0.009254	0.95	0.858	0.78	0.716
x1 = 0.01011	0.956	0.864	0.784	0.721

O=C(O)CC(O)(CC(=O)O)C(=O)O + C[N+](C)(C)Cc1ccccc1.[Cl-]
Settings	viscosity [mPa·s]
323.1 K, 101 kPa, x2 = 0.5	88750

CC(Cl)(Cl)Cl + CC1CCCO1
298.15 K, 101.33 kPa
Settings	viscosity [mPa·s]
x1 = 0.099	0.5033
x1 = 0.2	0.5324
x1 = 0.299	0.5617
x1 = 0.398	0.5917
x1 = 0.5	0.6234
x1 = 0.6	0.655
x1 = 0.7	0.6873
x1 = 0.8	0.7209
x1 = 0.869	0.7447

CC/C(C)=N/O + CCCCCC
viscosity [mPa·s], 101.3 kPa
Settings	x1 = 0.0993	x1 = 0.1991	x1 = 0.2977	x1 = 0.3987	x1 = 0.4972	x1 = 0.5993	x1 = 0.6977	x1 = 0.7981	x1 = 0.899
293.15 K	0.345	0.393	0.461	0.556	0.69	0.899	1.213	1.729	2.695
298.15 K	0.33	0.376	0.437	0.526	0.646	0.835	1.111	1.559	2.357
303.15 K	0.315	0.357	0.414	0.495	0.605	0.776	1.019	1.411	2.09

O=C(O)CC(O)(CC(=O)O)C(=O)O + CC(O)CO
101.3 kPa, x1 = 0.333
Settings	viscosity [mPa·s]
298 K	2188
323 K	571

CC(Cl)(Cl)Cl + CCCCCCCC
303.15 K, 101 kPa
Settings	viscosity [mPa·s]
x1 = 0.1465	0.4786
x1 = 0.2573	0.4863
x1 = 0.3398	0.495
x1 = 0.4029	0.503
x1 = 0.4971	0.5195
x1 = 0.588	0.5408
x1 = 0.6617	0.5623
x1 = 0.7875	0.6103
x1 = 0.8238	0.6267
x1 = 0.9164	0.6735

CC(C)C1CCCCC1 + C1C[C@@H]2[C@H]3CC[C@H](C3)[C@@H]2C1
viscosity [mPa·s], 100 kPa
Settings	x2 = 0.1002	x2 = 0.1999	x2 = 0.3001	x2 = 0.4	x2 = 0.5	x2 = 0.5999	x2 = 0.7001	x2 = 0.8003	x2 = 0.8999
293.15 K	1.194	1.305	1.431	1.578	1.741	1.938	2.165	2.421	2.706
298.15 K	1.106	1.206	1.32	1.451	1.597	1.775	1.976	2.205	2.456
303.15 K	1.029	1.119	1.222	1.34	1.471	1.631	1.812	2.016	2.241
308.15 K	0.96	1.042	1.135	1.242	1.361	1.506	1.67	1.853	2.055
313.15 K	0.898	0.973	1.058	1.156	1.265	1.397	1.543	1.709	1.891
318.15 K	0.842	0.911	0.989	1.078	1.178	1.298	1.431	1.581	1.746
323.15 K	0.793	0.855	0.927	1.009	1.1	1.21	1.331	1.467	1.616

From the CheMixHub viscosity set
